Test results from patent publication US6737383B1, “Herbicidal oxadiazolidines” (priority 1999, dated 2004).

Columns and labels:
bedstraw = experiment: Test B pre/postemergence bedstraw; format: in vivo, Galium aparine
How it was run: (§1)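 Response is a visual 0-to-10 score relative to untreated plants, where 0 means no effect and 10 means complete control, taken twelve to sixteen days after application. Treatments went onto soil at planting and onto foliage of 1- to 4-leaf plants, using a surfactant-containing non-phytotoxic solvent.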

blackgrass = experiment: Test B pre/postemergence blackgrass; format: in vivo, Alopecurus myosuroides
How it was run: as §1

surinam grass = experiment: Test B pre/postemergence surinam grass; format: in vivo, Brachiaria decumbens
How it was run: as §1

cocklebur = experiment: Test B pre/postemergence cocklebur; format: in vivo, Xanthium strumarium
How it was run: as §1

corn = experiment: Test B pre/postemergence corn; format: in vivo, Zea mays
How it was run: as §1

crabgrass = experiment: Test B pre/postemergence crabgrass; format: in vivo, Digitaria sanguinalis
How it was run: as §1

giant foxtail = experiment: Test B pre/postemergence giant foxtail; format: in vivo, Setaria faberii
How it was run: as §1

morningglory = experiment: Test B pre/postemergence morningglory; format: in vivo, Ipomoea hederacea
How it was run: as §1

pigweed = experiment: Test B pre/postemergence pigweed; format: in vivo, Amaranthus retroflexus
How it was run: as §1

rape = experiment: Test B pre/postemergence rape; format: in vivo, Brassica napus
How it was run: as §1

soybean = experiment: Test B pre/postemergence soybean; format: in vivo, Glycine max
How it was run: as §1

sugar beet = experiment: Test B pre/postemergence sugar beet; format: in vivo, Beta vulgaris
How it was run: as §1

velvetleaf = experiment: Test B pre/postemergence velvetleaf; format: in vivo, Abutilon theophrasti
How it was run: as §1

wheat = experiment: Test B pre/postemergence wheat; format: in vivo, Triticum aestivum
How it was run: as §1

wild oat = experiment: Test B pre/postemergence wild oat; format: in vivo, Avena fatua
How it was run: as §1

purple nutsedge = experiment: Test B pre/postemergence purple nutsedge; format: in vivo, Cyperus rotundus
How it was run: as §1

[1] = Postemergence, Rate 62 g/ha, scale 0 to 10, 0 is no effect, 10 is complete control
[2] = Postemergence, Rate 125 g/ha, scale of 0 to 10 where 0 is no effect and 10 is complete control
[3] = Postemergence, Rate 500 g/ha, scale 0 (no effect) to 10 (complete control)
[4] = Preemergence, Rate 250 g/ha, scale 0 (no effect) to 10 (complete control)
[5] = Rate 62 g/ha, Preemergence, scale 0 to 10
[6] = Rate 125 g/ha, Preemergence, scale 0 to 10 (0 no effect, 10 complete control)
[7] = Rate 250 g/ha, Postemergence, scale 0 to 10, 0 is no effect, 10 is complete control
[8] = Rate 500 g/ha, Preemergence, scale 0 to 10 (0 no effect, 10 complete control)

CCOC(CC)n1c(=O)on(C(=O)N(c2ccc(F)cc2F)C(C)C)c1=O (stereo not drawn) [Compound 774]
0: Plant response rating, Bedstraw (bedstraw; [1]) | Bedstraw plant response rating (bedstraw; [2]) | Bedstraw plant response rating (bedstraw; [3]) | Bedstraw plant response rating (bedstraw; [4]) | Bedstraw plant response rating (bedstraw; [5]) | Bedstraw plant response rating (bedstraw; [6]) | Bedstraw plant response rating (bedstraw; [7]) | Bedstraw plant response rating (bedstraw; [8]) | Plant response rating, Blackgrass (blackgrass; [1]) | Blackgrass plant response rating (blackgrass; [2]) | Blackgrass plant response rating (blackgrass; [3]) | Blackgrass plant response rating (blackgrass; [4]) | Blackgrass plant response rating (blackgrass; [5]) | Blackgrass plant response rating (blackgrass; [6]) | Blackgrass plant response rating (blackgrass; [7]) | Blackgrass plant response rating (blackgrass; [8]) | Plant response rating, B. signalgrass (surinam grass; [1]) | B. signalgrass plant response rating (surinam grass; [2]) | B. signalgrass plant response rating (surinam grass; [4]) | B. signalgrass plant response rating (surinam grass; Rate 62 g/ha, Preemergence, scale 0 (no effect) to 10 (complete control)) | B. signalgrass plant response rating (surinam grass; [6]) | B. signalgrass plant response rating (surinam grass; [7]) | B. signalgrass plant response rating (surinam grass; Rate 500 g/ha, Postemergence, scale 0 to 10, 0 is no effect, 10 is complete control) | B. signalgrass plant response rating (surinam grass; [8]) | Plant response rating, Cocklebur (cocklebur; [1]) | Cocklebur plant response rating (cocklebur; [2]) | Cocklebur plant response rating (cocklebur; [3]) | Cocklebur plant response rating (cocklebur; [4]) | Cocklebur plant response rating (cocklebur; [5]) | Cocklebur plant response rating (cocklebur; [6]) | Cocklebur plant response rating (cocklebur; [7]) | Cocklebur plant response rating (cocklebur; [8]) | Plant response rating, Corn (corn; [1]) | Corn plant response rating (corn; [2]) | Corn plant response rating (corn; [3]) | Corn plant response rating (corn; [4]) | Corn plant response rating (corn; [5]) | Corn plant response rating (corn; [6]) | Corn plant response rating (corn; [7]) | Corn plant response rating (corn; [8]) | Plant response rating, Crabgrass (crabgrass; [1]) | Crabgrass plant response rating (crabgrass; [2]) | Crabgrass plant response rating (crabgrass; [3]) | Crabgrass plant response rating (crabgrass; [4]) | Crabgrass plant response rating (crabgrass; [5]) | Crabgrass plant response rating (crabgrass; [6]) | Crabgrass plant response rating (crabgrass; [7]) | Crabgrass plant response rating (crabgrass; [8]) | Plant response rating, Giant foxtail (giant foxtail; [1]) | Giant foxtail plant response rating (giant foxtail; [2]) | Giant foxtail plant response rating (giant foxtail; [3]) | Giant foxtail plant response rating (giant foxtail; [4]) | Giant foxtail plant response rating (giant foxtail; [5]) | Giant foxtail plant response rating (giant foxtail; [6]) | Giant foxtail plant response rating (giant foxtail; [7]) | Giant foxtail plant response rating (giant foxtail; [8]) | Plant response rating, Morningglory (morningglory; [1]) | Morningglory plant response rating (morningglory; [2]) | Morningglory plant response rating (morningglory; [3]) | Morningglory plant response rating (morningglory; [5]) | Morningglory plant response rating (morningglory; [6]) | Morningglory plant response rating (morningglory; [7]) | Morningglory plant response rating (morningglory; [8]) | Plant response rating, Redroot pigweed (pigweed; [1]) | Redroot pigweed plant response rating (pigweed; [2]) | Redroot pigweed plant response rating (pigweed; [3]) | Redroot pigweed plant response rating (pigweed; [5]) | Redroot pigweed plant response rating (pigweed; [6]) | Redroot pigweed plant response rating (pigweed; [7]) | Redroot pigweed plant response rating (pigweed; [8]) | Plant response rating, Rape (rape; [1]) | Rape plant response rating (rape; [2]) | Rape plant response rating (rape; [3]) | Rape plant response rating (rape; [5]) | Rape plant response rating (rape; [6]) | Rape plant response rating (rape; [7]) | Rape plant response rating (rape; [8]) | Plant response rating, Soybean (soybean; [1]) | Soybean plant response rating (soybean; [3]) | Soybean plant response rating (soybean; [5]) | Soybean plant response rating (soybean; [6]) | Soybean plant response rating (soybean; [7]) | Soybean plant response rating (soybean; [8]) | Plant response rating, Sugarbeets (sugar beet; [1]) | Sugarbeets plant response rating (sugar beet; [3]) | Sugarbeets plant response rating (sugar beet; [5]) | Sugarbeets plant response rating (sugar beet; [6]) | Sugarbeets plant response rating (sugar beet; [7]) | Sugarbeets plant response rating (sugar beet; [8]) | Plant response rating, Velvetleaf (velvetleaf; [1]) | Velvetleaf plant response rating (velvetleaf; [3]) | Velvetleaf plant response rating (velvetleaf; [5]) | Velvetleaf plant response rating (velvetleaf; [6]) | Velvetleaf plant response rating (velvetleaf; [7]) | Velvetleaf plant response rating (velvetleaf; [8]) | Plant response rating, Wheat (wheat; [1]) | Wheat plant response rating (wheat; [3]) | Wheat plant response rating (wheat; [5]) | Wheat plant response rating (wheat; [6]) | Wheat plant response rating (wheat; [7]) | Wheat plant response rating (wheat; [8]) | Plant response rating, Wild oats (wild oat; [1]) | Wild oats plant response rating (wild oat; [3]) | Wild oats plant response rating (wild oat; [5]) | Wild oats plant response rating (wild oat; [6]) | Wild oats plant response rating (wild oat; [7]) | Wild oats plant response rating (wild oat; [8]) | Plant response rating, Nutsedge (purple nutsedge; [1]) | Nutsedge plant response rating (purple nutsedge; [2]) | Nutsedge plant response rating (purple nutsedge; [3]) | Nutsedge plant response rating (purple nutsedge; [5]) | Nutsedge plant response rating (purple nutsedge; [6]) | Nutsedge plant response rating (purple nutsedge; [7]) | Nutsedge plant response rating (purple nutsedge; [8])
